Like-named read-outs stand apart in the source and are kept apart here. Marks after values point to notes of the source that are not given here.
What was measured:
[1] = tested on: activated partial thromboplastin time (intrinsic coagulation pathway); experiment: Anticoagulant activity, clotting test APTT; set-up: species or system human; details: for APTT, % of control: concentration 5×10^–4 g/mL, median (25-75 percentiles); for anticoagulant activity: APTT, p<0.05
Protocol: The in vitro experiments were performed using the blood of healthy male donors aged 18-24 years (total 54 donors). The study was approved by the Ethics Committee of Federal State Budgetary Educational Institution of Higher Education at the Bashkir State Medical University of the Ministry of Health of Russian Federation (No.2 dated 17.10.2012). Informed consent was obtained from all participants before blood sampling. The blood was collected from the cubital vein using the system of vacuum blood collection BD Vacutainer® (Becton, Dickinson and Company, USA). A 3.8 % sodium citrate solution in a 9:1 ratio was used as a venous blood stabiliser. The study of the effect on platelet aggregation was performed using the Born method using the aggregometer «AT-02» (SPC Medtech, Russia). The assessment of antiplatelet activity of the studied compounds and reference preparations was started with the final concentration of 2×10^–3 mol/L. Adenosine diphosphate (ADP; 20 μg/mL) and collagen (5 mg/mL) manufactured by Tehnologia-Standart Company, Russia, were used as inducers of aggregation. The study on the anticoagulant activity was performed by standard recognised clotting tests using the optical two-channel automatic analyser of blood coagulation Solar CGL 2110 (CJSC SOLAR, Belarus). The following parameters were studied: activated partial thromboplastin time (APTT), prothrombin time (PT) and fibrinogen concentrations according to the Clauss method. The determination of anticoagulant activity of the studied compounds and reference preparation was performed in a concentration of 5×10^–4 g/mL using the reagents manufactured by Tehnologia-Standart Company (Barnaul, Russia). The results of the study were processed using the statistical package Statistica 10.0 (StatSoft Inc, USA). The Shapiro–Wilk’s test was used to check the normality of actual data distribution. The form of distribution of the data obtained differed from the normal one; therefore, non-parametric methods were used for further analysis. The data were presented as medians and 25 and 75 percentiles. Analysis of variance was conducted using Kruskal–Wallis test. A p value of 0.05 was considered statistically significant.

[2] = tested on: Pectobacterium atrosepticum 1043; experiment: Bactericidal activity, agar diffusion, P. atrosepticum; type: cell-based; details: Pectobacterium atrosepticum, 1043, 2 mM/L
From the text: (§1) Plant pathogenic bacterial strains Micrococcus luteus B-109, Pectobacterium atrosepticum 1043, Pectobacterium carotovorum subsp. carotovorum MI, Pseudomonas fluorescens EL-2.1, and Xanthomonas campestris B-610 and fungal strain Fusarium oxysporum IBPPM 543 were obtained from the specialized scientific culture collection of IBPPM RAS (WFCC no. 975, WDCM no. 1021) (CM IBPPM). Pathogenic fungus Phytophthora cactorum VKM F-985 provided by the All-Russian Collection of Microorganisms (VKM) and deposited at A.E. Favorsky Irkutsk Institute of Chemistry, SB RAS, was also used as test organism. Bacteria M. luteus, P. carotovorum subsp. carotovorum, P. atrosepticum, and Ps. fluorescens were grown in meat-peptone medium (BP), and X. campestris was grown in the medium with glucose, yeast extract, and calcium carbonate (GYCa). Solid media contained Bacto agar (18 g/L); pH was adjusted to 7.2-7.4. All bacterial cultures were grown at 28°C. The mycelial cultures of F. oxysporum and P. cactorum were grown on a glucose-peptone-yeast (GPY) nutrient medium at 27 °C. For inoculum preparation, both fungal strains were initially grown on the agar GPY in Petri dishes and then transferred into the seed medium by punching out 5 mm of the agar plate culture with a self-designed cutter.
(§2) Antibacterial and antifungal activities of the compounds were explored using the agar diffusion method and the technique of a phytopathogen radial growth inhibition. Method of diffusion in agar (measuring the diameter of growth inhibition zones) was used for determining the bactericidal activity. The 6-mm wells were made in ager medium (GYCa for Xanthomonas campestris or BP for other bacteria). Bacterial suspensions were distributed over the agar surface, and the tested compound's solution (150 μl) was added to each well. The width of growth inhibition zones around the wells was determined after incubation for 36-40 h.
(§3) The solutions of tested compounds were prepared with a concentration of 2 mmol/l (stock solution). For comparison, test compounds were also commonly applied disinfecting agents and antibiotics.

[3] = tested on: Bacillus cereus ATCC 10702 NCTC 8035; experiment: Antimicrobial activity, serial dilution (MIC/MBC), Bc; type: cell-based
Protocol: (§4) The antimicrobial activity of the test compounds was determined by the serial dilution technique in Muller Hinton Broth 2 and in Sabouradu broth for fungi. The cultures used for testing included Gram-positive bacteria: Staphylococcus aureus ATCC 6538P FDA 209P, Bacillus cereus ATCC 10702 NCTC 8035, Enterococcus faecalis ATCC 29212; Gram-negative bacteria: Escherichia coli ATCC 25922, Pseudomonas aeruginosa ATCC 9027, and fungi: Trichophyton mentagrophytes var. gypseum 1773, and Candida albicans ATCC 10231; methicillin-resistant strains of S. aureus (MRSA) was obtained from hospital patients with chronic tonsillitis in the Republican Clinical Hospital (Kazan, Russia). The bacterial load was 3.0 × 10^5 cfu/ml. The fungi load was 2.0 × 10^3 cfu/ml. The results were recorded every 24 h for 5-7 days. Cultures were incubated at 37 °C. The experiment was repeated three times. […] The minimum inhibitory concentration (MIC) was defined as the minimum concentration of a compound that inhibits the growth of the corresponding test microorganism. The growth of bacteria, as well as the absence of the growth due to the bacteriostatic action of compounds, were recorded.
(§5) Synthesized compounds were further evaluated for antimicrobial activity against test microorganisms: Staphylococcus aureus ATCC 209p (Sa), Bacillus cereus ATCC 8035 (Bc), Escherichia coli CDC F-50 (Ec), Enterococcus faecalis (Ef), Pseudomonas aeruginosa ATCC 9027, Aspergillus niger BKMF-1119, Trichophyton mentagrophytes var. gypseum 1773, and Candida albicans 855-653 including methicillin-resistant strains of S. aureus (MRSA 1 and MRSA 2). The minimum inhibitory (MIC) and minimum bactericidal (MBC) concentrations of ammonium salts were determined against these pathogens (Table 1). Due to the lack of activity of compounds 3a-g against Gram-negative bacterial strains and some fungi, the corresponding data are not shown.

[4] = tested on: Pseudomonas fluorescens EL-2.1; experiment: Bactericidal activity, agar diffusion, Ps. fluorescens; type: cell-based; details: Pseudomonas fluorescens, EL2.1, 2 mM/L
From the text: as §1, §2, §3

[5] = tested on: Staphylococcus aureus ATCC 6538P FDA 209P; experiment: Antimicrobial activity, serial dilution (MIC/MBC), Sa; type: cell-based
Protocol: as §4, §5

[6] = tested on: Pectobacterium carotovorum subsp. carotovorum MI; experiment: Bactericidal activity, agar diffusion, P. carotovorum; type: cell-based; details: Pectobacterium carotovorum, 2 mM/L
From the text: as §1, §2, §3

[7] = tested on: Candida albicans ATCC 10231; experiment: Antimicrobial activity, serial dilution (MIC/MBC), Ca; type: cell-based; details: ATCC10231
Protocol: as §4, §5

[8] = 150 μl per well, 36-40 h, read-out: width of the inhibition zone
[9] = read-out: Inhibition zone width (mm), not less
[10] = Staphylococcus aureus, read-out: MBC (converted)

| Structure (SMILES) | MIC ([3]; Bacillus cereus, read-out: MIC) [µM] | MIC ([5]; Staphylococcus aureus) [µM] | MIC [7] [µM] | MIC [3] [µM] | APTT, % of control [1] | zone of inhibition at 2000 µM [2, 8] [mm] | zone of inhibition at 2000 µM [2, 9] [mm] | MBC ([3]; Bacillus cereus) [µM] | zone of inhibition at 2000 µM [4, 8] [mm] | zone of inhibition at 2000 µM [4, 9] [mm] | MBC [5, 10] [µM] | zone of inhibition at 2000 µM [6, 8] [mm] | zone of inhibition at 2000 µM [6, 9] [mm] | MBC [7] [µM] | anticoagulant activity [1] [%] | MBC [5] [µM] |
| --- | --- | --- | --- | --- | --- | --- | --- | --- | --- | --- | --- | --- | --- | --- | --- | --- |
| CC[N+](CC)(CC)CC(=O)N/N=C1\C(=O)N(Cc2cc(C(C)(C)C)c(O)c(C(C)(C)C)c2)c2ccccc21 [Compound 3a, 2-(2-(1-(3,5-Di-tert-butyl-4-hydroxybenzyl)-2-oxoindolin-3-ylidene)hydrazinyl)-N,N,N-triethyl-2-oxoethanammonium bromide] | 52 ± 4.7 | 6.5 ± 0.5 | > 500 |  | +5.2 (4.1-7.6) ^*, ^† % of control | 8 | ≥ 8 | > 500 | 9 | ≥ 9 | 13 | 10 | ≥ 10 | > 500 |  |  |
| CC[N+](CC)(CC)CC(=O)N/N=C1\C(=O)N(Cc2cc(C(C)(C)C)c(O)c(C(C)(C)C)c2)c2cccc(Br)c21 [Compound 3e, 2-(2-(1-(3,5-Di-tert-butyl-4-hydroxybenzyl)-4-bromo-2-oxoindolin-3-ylidene)hydrazinyl)-N,N,N-triethyl-2-oxoethanammonium bromide] | 71 ± 6.2 | 8.9 ± 0.7 | > 500 |  | +3.2 (2.8-5.4) ^‡ % of control | 15 | ≥ 15 | 284 | 9 | ≥ 9 | 17.7 | 10 | ≥ 10 | > 500 |  |  |
| CC[N+](CC)(CC)CC(=O)N/N=C1\C(=O)N(Cc2cc(C(C)(C)C)c(O)c(C(C)(C)C)c2)c2ccc([N+](=O)[O-])cc21 [Compound 3f, 2-(2-(1-(3,5-Di-tert-butyl-4-hydroxybenzyl)-5-nitro-2-oxoindolin-3-ylidene)hydrazinyl)-N,N,N-triethyl-2-oxoethanammonium bromide] | 397 ± 31.7 | 48.3 ± 3.9 | > 500 |  | +10.3 (8.5-12.7) ^*, ^† % of control | 10 | ≥ 10 | > 500 | 10 | ≥ 10 | 96.7 | 5 |  | > 500 | ≥ 10 |  |

More lines, in order of falling MIC ([3]; Bacillus cereus, read-out: MIC), values ahead:

| MIC ([3]; Bacillus cereus, read-out: MIC) [µM] | MIC ([5]; Staphylococcus aureus) [µM] | MIC [7] [µM] | MIC [3] [µM] | Structure (SMILES) | APTT, % of control [1] | zone of inhibition at 2000 µM [2, 8] [mm] | zone of inhibition at 2000 µM [2, 9] [mm] | MBC ([3]; Bacillus cereus) [µM] | zone of inhibition at 2000 µM [4, 8] [mm] | zone of inhibition at 2000 µM [4, 9] [mm] | MBC [5, 10] [µM] | zone of inhibition at 2000 µM [6, 8] [mm] | zone of inhibition at 2000 µM [6, 9] [mm] | MBC [7] [µM] | anticoagulant activity [1] [%] | MBC [5] [µM] |
| --- | --- | --- | --- | --- | --- | --- | --- | --- | --- | --- | --- | --- | --- | --- | --- | --- |
| 49.6 ± 3.9 | 3.1 ± 0.2 | 198 ± 15.5 |  | CC[N+](CC)(CC)CC(=O)N/N=C1\C(=O)N(Cc2cc(C(C)(C)C)c(O)c(C(C)(C)C)c2)c2c1ccc(C)c2C [Compound 3d, 2-(2-(1-(3,5-Di-tert-butyl-4-hydroxybenzyl)-6,7-dimethyl-2-oxoindolin-3-ylidene)hydrazinyl)-N,N,N-triethyl-2-oxoethanammonium bromide] | +4.8 (3.7-6.9) ^‡ % of control | 8 | ≥ 8 | 198 | 9 | ≥ 9 | 12.4 | 8 | ≥ 8 | > 500 |  |  |
| 43.7 ± 3.5 | 11 ± 0.9 | > 500 |  | CC[N+](CC)(CC)CC(=O)N/N=C1\C(=O)N(Cc2cc(C(C)(C)C)c(O)c(C(C)(C)C)c2)c2c(Br)cc(Cl)cc21 [Compound 3g, 2-(2-(1-(3,5-Di-tert-butyl-4-hydroxybenzyl)-5-chloro-7-bromo-2-oxoindolin-3-ylidene)hydrazinyl)-N,N,N-triethyl-2-oxoethanammonium bromide] | +8.6 (6.1-10.9) ^*, ^† % of control | 9 | ≥ 9 | 87.4 | 8.5 | ≥ 8 | 21.9 | 9 | ≥ 9 | > 500 |  |  |
| ~25 | 3.1 ± 0.2 | > 500 | 24.8 ± 1.9 | CCc1cccc2c1N(Cc1cc(C(C)(C)C)c(O)c(C(C)(C)C)c1)C(=O)/C2=N\NC(=O)C[N+](CC)(CC)CC [Compound 3c, 2-(2-(1-(3,5-Di-tert-butyl-4-hydroxybenzyl)-7-ethyl-2-oxoindolin-3-ylidene)hydrazinyl)-N,N,N-triethyl-2-oxoethanammonium bromide] | +11.2 (7.9-13.1) ^*, ^† % of control | 9 | ≥ 9 | 99.3 | 8 | ≥ 8 | 6.2 | 9 | ≥ 9 | > 500 | ≥ 10 | 6.2 ± 0.5 |
